Literature values, collected in patent US5998415A, “Bicyclic heteroaryl-alkylene-(homo)piperazinones and thione analogues thereof, their preparation, and their use of as selective agonists of 5-HT1 -like receptors” (Merck Sharp & Dohme Ltd., priority 1995, dated 1999).

Key:
[1] = humans, therapeutic doses
[2] = system: human 5-HT1Dα and 5-HT1Dβ receptor subtypes; conditions: cf. WO-A-91/17174, Table 1

CNS(=O)(=O)Cc1ccc2[nH]cc(CCN(C)C)c2c1 [sumatriptan]
adverse cardiovascular events (in words) [1]: certain adverse cardiovascular events
discrimination between the human 5-HT1Dα and 5-HT1Dβ receptor subtypes (in words) [2]: barely discriminates between the human 5-HT1Dα and 5-HT1Dβ receptor subtypes
